Measurements reported in BindingDB's records for patent US11034694 (Nimbus Saturn, 2021).

Molecular target: Mitogen-activated protein kinase kinase kinase kinase 1 (Homo sapiens, UniProt Q92918)
Assay: Biochemical Enzyme Assay
Procedure: HPK1 biochemical enzyme assay: HPK1 enzyme inhibition was measured using a microfluidic mobility shift assay. […] Test compounds were titrated in ten point curves (top final assay concentration 3 μM), and preincubated with enzyme/substrate mix for 30 min prior to initiation of the reaction by addition of ATP (1 mM final concentration) and substrate (1 μM final concentration; Carna Biosciences) diluted in assay buffer supplemented by MgCl2 (final assay concentration of 5 mM). Following 60 min incubation at RT, the reaction was terminated by addition of 60 μl/well termination buffer (Carna Biosciences) and signal determination using a Caliper EZ Reader (Perkin Elmer, UK).

Mitogen-activated protein kinase kinase kinase kinase 1, sequence (Q92918 whole entry): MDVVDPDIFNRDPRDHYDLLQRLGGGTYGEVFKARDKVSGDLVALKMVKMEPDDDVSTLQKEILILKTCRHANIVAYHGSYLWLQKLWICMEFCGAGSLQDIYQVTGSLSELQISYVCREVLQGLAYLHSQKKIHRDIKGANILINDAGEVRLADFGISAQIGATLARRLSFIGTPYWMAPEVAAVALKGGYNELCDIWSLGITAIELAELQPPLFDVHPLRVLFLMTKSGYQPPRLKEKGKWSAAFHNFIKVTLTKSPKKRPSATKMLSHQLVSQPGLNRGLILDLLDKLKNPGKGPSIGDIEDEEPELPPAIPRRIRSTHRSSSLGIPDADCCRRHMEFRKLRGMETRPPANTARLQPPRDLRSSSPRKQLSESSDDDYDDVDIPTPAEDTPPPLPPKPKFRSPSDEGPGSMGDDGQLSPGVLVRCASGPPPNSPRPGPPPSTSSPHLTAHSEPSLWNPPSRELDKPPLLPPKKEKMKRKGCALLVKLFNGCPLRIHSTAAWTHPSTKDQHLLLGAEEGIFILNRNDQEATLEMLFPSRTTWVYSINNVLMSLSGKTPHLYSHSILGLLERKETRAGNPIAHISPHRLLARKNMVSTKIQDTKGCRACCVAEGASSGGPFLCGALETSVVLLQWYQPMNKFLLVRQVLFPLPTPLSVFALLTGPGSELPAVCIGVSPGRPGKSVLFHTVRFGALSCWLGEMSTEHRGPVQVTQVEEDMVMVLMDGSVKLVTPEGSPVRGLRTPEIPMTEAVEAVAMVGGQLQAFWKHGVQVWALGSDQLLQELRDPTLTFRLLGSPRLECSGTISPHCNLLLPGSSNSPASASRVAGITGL

IC50	SMILES
< 100 nM	CNC1CN(c2cccc(Cc3cnc(-c4ccnc5c4ccn5C)c4c3C(=O)NC4)n2)C1 [US11034694, Compound I-449]
< 100 nM	Cc1ccn2c(-c3ccc(Nc4ccc(N5CCO[C@@H](CP)C5)cn4)c4c3CNC4=O)cnc2c1F [US11034694, Compound I-460]
< 100 nM	Cn1ccc2c(-c3ncc(Nc4ccc(N5C[C@H]6COC[C@@H]5C6)cn4)c4c3CNC4=O)ccnc21 [US11034694, Compound I-309]
